Common to all, as to assay type: biochemical
One assay addresses T1, recombinant PRL-3 (Homo sapiens, UniProt O75365).
T1 construct: 6xHis (N, cleaved yes); made in house; host or cells: E. coli One Shot BL21 Star
The experiment in a line: In vitro phosphatase assay (DiFMUP hydrolysis), PRL-3. Note: test concentration or dose not given here.

The target in the next assay is T2, recombinant PRL-1 (Homo sapiens, UniProt Q93096).
T2 construct: 6xHis (N, cleaved yes); made in house; host or cells: E. coli One Shot BL21 Star
T2 sequence (Q93096 1-173): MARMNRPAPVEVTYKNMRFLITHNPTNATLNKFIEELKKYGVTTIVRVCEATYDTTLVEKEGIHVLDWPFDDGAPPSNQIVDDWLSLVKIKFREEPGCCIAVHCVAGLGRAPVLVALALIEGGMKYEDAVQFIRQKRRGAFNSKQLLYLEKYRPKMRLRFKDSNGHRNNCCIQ
As to the kind of experiment: In vitro phosphatase assay (DiFMUP hydrolysis), PRL-1. Note: test concentration or dose not given here.

The next assay has as its target T3, recombinant PRL-2 (Homo sapiens, UniProt Q12974).
T3 construct: 6xHis (N, cleaved yes); made in house; host or cells: E. coli One Shot BL21 Star
T3 sequence (Q12974 1-167): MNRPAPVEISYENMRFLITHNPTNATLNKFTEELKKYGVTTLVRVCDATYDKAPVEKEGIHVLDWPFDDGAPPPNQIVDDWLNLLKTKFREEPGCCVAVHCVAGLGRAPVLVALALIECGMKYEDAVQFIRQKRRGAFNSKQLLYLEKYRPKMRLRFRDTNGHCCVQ
The experiment in a line: In vitro phosphatase assay (DiFMUP hydrolysis), PRL-2.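 Note: PRL-2 activity read as DiFMUP hydrolysis after 20 min at room temperature with drug, enzyme first pre-reduced at 4 °C for 20 min.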

The mark [1] stands for this setting: FDA-approved drug screen, compared to DMSO.

Counter-ions that a name gives are not always drawn. Like-named read-outs stand apart in the source and are kept apart here.

T1 sequence (O75365 whole entry): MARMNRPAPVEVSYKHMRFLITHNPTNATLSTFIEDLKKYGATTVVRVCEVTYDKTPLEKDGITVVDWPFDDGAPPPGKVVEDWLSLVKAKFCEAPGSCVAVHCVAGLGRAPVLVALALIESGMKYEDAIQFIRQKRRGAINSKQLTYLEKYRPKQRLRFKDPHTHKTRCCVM

In the case of `CN(C)[C@@H]1C(O)=C(C(N)=O)C(=O)[C@@]2(O)C(O)=C3C(=O)c4c(O)ccc(Cl)c4[C@@H](O)[C@H]3C[C@@H]12` [Demeclocycline HCl], at recombinant PRL-3 (setting [1]), the “% Phosphatase Activity (compared to DMSO) PRL-3” value came to 67%. The “% Phosphatase Activity (compared to DMSO) PRL-1” value on recombinant PRL-1 (setting [1]) came to 90%. Further, at recombinant PRL-2 (setting [1]), the “% Phosphatase Activity (compared to DMSO) PRL-2” value came to 86%.
As for `C[C@H](CCC(=O)O)[C@H]1CC[C@H]2[C@@H]3CC[C@@H]4C[C@H](O)CC[C@]4(C)[C@H]3C[C@H](O)[C@]12C` [Deoxycholic acid], the “% Phosphatase Activity (compared to DMSO) PRL-3” value on recombinant PRL-3 (setting [1]) amounted to 96%. For the same compound, on recombinant PRL-1 (setting [1]), the “% Phosphatase Activity (compared to DMSO) PRL-1” value amounted to 89%. Moreover, the “% Phosphatase Activity (compared to DMSO) PRL-2” value at recombinant PRL-2 (setting [1]) amounted to 73%.
For `CC(=O)OCC(=O)[C@H]1CC[C@H]2[C@@H]3CCC4=CC(=O)CC[C@]4(C)[C@H]3CC[C@]12C` [Deoxycorticosterone acetate], the “% Phosphatase Activity (compared to DMSO) PRL-3” value at recombinant PRL-3 (setting [1]) was determined as 74%. Also, the “% Phosphatase Activity (compared to DMSO) PRL-1” value at recombinant PRL-1 (setting [1]) is reported as 84%. Also, the “% Phosphatase Activity (compared to DMSO) PRL-2” value at recombinant PRL-2 (setting [1]) amounted to 83%.
Taken in the same sequence, the figures for `C#C[C@]1(O)CC[C@H]2[C@@H]3CCC4=CCCC[C@@H]4[C@H]3C(=C)C[C@@]21CC` [Desogestrel] were 84%, 104% and 109%.
Taken in the same sequence, the figures for `CC1(C)O[C@@H]2C[C@H]3[C@@H]4CCC5=CC(=O)C=C[C@]5(C)[C@H]4[C@@H](O)C[C@]3(C)[C@]2(C(=O)CO)O1` [Desonide] were 84%, 98% and 97%.
On to `CN(C)CC(c1ccc(O)cc1)C1(O)CCCCC1` (stereo not drawn) [Desvenlafaxine Succinate], for which, at recombinant PRL-3 (setting [1]), the “% Phosphatase Activity (compared to DMSO) PRL-3” value turned out to be 80%. For the same compound, the “% Phosphatase Activity (compared to DMSO) PRL-1” value at recombinant PRL-1 (setting [1]) is recorded as 106%. For the same compound, the “% Phosphatase Activity (compared to DMSO) PRL-2” value on recombinant PRL-2 (setting [1]) came out at 103%.
For `CN(C)CC(c1ccc(O)cc1)C1(O)CCCCC1` (stereo not drawn) [Desvenlafaxine] the same measures were 70%, 95% and 105%.
For the compound `Cc1cccc(Cc2c[nH]cn2)c1C` [Detomidine HCl], the “% Phosphatase Activity (compared to DMSO) PRL-3” value on recombinant PRL-3 (setting [1]) is 81%. Further, on recombinant PRL-1 (setting [1]), the “% Phosphatase Activity (compared to DMSO) PRL-1” value amounted to 88%. For the same compound, the “% Phosphatase Activity (compared to DMSO) PRL-2” value at recombinant PRL-2 (setting [1]) amounted to 107%.
Taken in the same sequence, the figures for `C[C@@H]1C[C@H]2[C@@H]3CCC4=CC(=O)C=C[C@]4(C)[C@@]3(F)[C@@H](O)C[C@]2(C)[C@@]1(O)C(=O)CO` [Dexamethasone (DHAP)] were 66%, 99% and 94%.
Turning to `CC(=O)OCC(=O)[C@@]1(O)[C@H](C)C[C@H]2[C@@H]3CCC4=CC(=O)C=C[C@]4(C)[C@@]3(F)[C@@H](O)C[C@@]21C` [Dexamethasone Acetate], at recombinant PRL-3 (setting [1]), the “% Phosphatase Activity (compared to DMSO) PRL-3” value is 86%. Further, the “% Phosphatase Activity (compared to DMSO) PRL-1” value at recombinant PRL-1 (setting [1]) is reported as 90%. In addition, the “% Phosphatase Activity (compared to DMSO) PRL-2” value on recombinant PRL-2 (setting [1]) is listed as 93%.
Turning to `Cc1c(OCC(F)(F)F)ccnc1C[S@@+]([O-])c1nc2ccccc2[nH]1` [Dexlansoprazole], the “% Phosphatase Activity (compared to DMSO) PRL-3” value on recombinant PRL-3 (setting [1]) is 93%. Further, the “% Phosphatase Activity (compared to DMSO) PRL-1” value at recombinant PRL-1 (setting [1]) was found to be 95%. The “% Phosphatase Activity (compared to DMSO) PRL-2” value at recombinant PRL-2 (setting [1]) came out at 100%.
For the compound `Cc1cccc([C@H](C)c2c[nH]cn2)c1C.Cl` [Dexmedetomidine HCl (Precedex)], the “% Phosphatase Activity (compared to DMSO) PRL-3” value on recombinant PRL-3 was 90%. For the same compound, the “% Phosphatase Activity (compared to DMSO) PRL-1” value on recombinant PRL-1 is 111%. Further, the “% Phosphatase Activity (compared to DMSO) PRL-2” value on recombinant PRL-2 is on record as 120%.
For `Cc1cccc([C@H](C)c2cnc[nH]2)c1C` [Dexmedetomidine] the same measures were 94%, 98% and 113%.
Consider `C[C@@H](CN1CC(=O)NC(=O)C1)N1CC(=O)NC(=O)C1.Cl` [Dexrazoxane HCl (ICRF-187, ADR-529)], for which the “% Phosphatase Activity (compared to DMSO) PRL-3” value on recombinant PRL-3 (setting [1]) came out at 79%. For the same compound, the “% Phosphatase Activity (compared to DMSO) PRL-1” value at recombinant PRL-1 (setting [1]) was 97%. The “% Phosphatase Activity (compared to DMSO) PRL-2” value at recombinant PRL-2 (setting [1]) was found to be 92%.
For `Br.COc1ccc2c(c1)[C@]13CCCC[C@@H]1[C@H](C2)N(C)CC3.O` [Dextromethorphan (hydrobromide hydrate)] the same measures were 92%, 104% and 118%.
Taken in the same sequence, the figures for `OC[C@H]1OC(O)[C@H](O)[C@@H](O)[C@@H]1O` (stereo partly drawn) [Dextrose] were 79%, 106% and 113%.

Source of the values: publication PMC8119466, “A screen of FDA-approved drugs identifies inhibitors of protein tyrosine phosphatase 4A3 (PTP4A3 or PRL-3)” (Scientific Reports, 2021).
